Data set [1] can be described thus: Toxic concentration against uninfected cells and their ability to generate XTT formazan. To be noted: read-out: TC50 (the source's name). In kind it is ADME, cell-based. (In general: Tetrazolium dyes change colour on reduction, which living cells bring about.)
A short description of data set [2]: Therapeutic index. The note with it: read-out: Therapeutic index.
In the next data set the test system is Human alphaherpesvirus 1. Briefly: Inhibitory concentration against herpes simplex virus (HSV-1-lacZ) replication.

For orientation: EC50 means the concentration at which the effect is half-maximal. Lower therefore signals an effect from little substance. Consider `COc1ccc2sc3c(c2c1)N[C@@H](C)CNC3=O`, for which the CC50 in data set [1] turned out to be 2000 nM. The selectivity ratio in data set [2] amounted to 40. Besides, in the data set on Human alphaherpesvirus 1, the midpoint of the response, the EC50, lay at 50 nM.

Regarding `COc1cccc(CN2C[C@@H](C)NC(=O)c3sc4ccc(OC)cc4c32)c1`, the CC50 in data set [1] worked out at 3400 nM. Besides, the selectivity ratio in data set [2] stood at 170. In addition, in the data set on Human alphaherpesvirus 1, the response was half-maximal at 30 nM (EC50).

In the case of `COc1ccc2sc3c(c2c1)N(Cc1ccccc1C)CCNC3=O`, in data set [1], the CC50 is 25000 nM. Also, the selectivity ratio in data set [2] amounted to 1200. In addition, the response in the data set on Human alphaherpesvirus 1 was half-maximal at 21 nM (EC50).

On to `COc1ccc2sc3c(c2c1)NC[C@@H](Cc1ccccc1)NC3=O`, for which, in data set [1], the CC50 was found to be 10000 nM. The selectivity ratio in data set [2] amounted to 29. For the same compound, a half-maximal effect in the data set with Human alphaherpesvirus 1 (EC50) was put at 340 nM.

As to `COc1ccc2sc3c(c2c1)N(Cc1cccc([N+](=O)[O-])c1)CCNC3=O`, in data set [1], the CC50 is 25000 nM. Besides, in data set [2], the selectivity ratio was found to be 6250. For the same compound, in the data set on Human alphaherpesvirus 1, the EC50 is 4 nM.

For the compound `COc1ccc2sc3c(c2c1)NC[C@H](C)NC3=O`, the CC50 in data set [1] is 6000 nM. In addition, the selectivity ratio in data set [2] turned out to be 35. The compound further gave an EC50 with Human alphaherpesvirus 1 of 170 nM.

As to `COc1ccc2sc3c(c2c1)N[C@H](Cc1ccccc1)CNC3=O`, the CC50 in data set [1] is 1400 nM. In addition, in data set [2], the selectivity ratio amounted to 16. Further, the EC50 with Human alphaherpesvirus 1 came to 90 nM.

For `COc1ccc2sc3c(c2c1)N(Cc1cccc(C)c1)CCNC3=O`, the CC50 in data set [1] worked out at 12000 nM. Further, the selectivity ratio in data set [2] was found to be 2400. In the data set with Human alphaherpesvirus 1, this compound registered an EC50 of 5 nM.

As for `COc1ccc(CN2CCNC(=O)c3sc4ccc(OC)cc4c32)cc1`, the CC50 in data set [1] amounted to 10000 nM. In data set [2], the selectivity ratio was 830. A half-maximal effect with Human alphaherpesvirus 1 (EC50) was put at 12 nM.

Turning to `COc1cccc(CN2C[C@H](C)NC(=O)c3sc4ccc(OC)cc4c32)c1`, the CC50 in data set [1] stood at 11000 nM. Moreover, the selectivity ratio in data set [2] worked out at 550. The response in the data set on Human alphaherpesvirus 1 was half-maximal at 20 nM (EC50).

For the compound `COc1ccc2sc3c(c2c1)NC[C@@H](CC(C)C)NC3=O`, the CC50 in data set [1] stood at 7000 nM. Further, the selectivity ratio in data set [2] stood at 18. In the data set with Human alphaherpesvirus 1, this compound gave an EC50 of 390 nM.

On to `COc1ccc2sc3c(c2c1)N(Cc1ccc([N+](=O)[O-])cc1)CCNC3=O`, for which, in data set [1], the CC50 was 25000 nM. The selectivity ratio in data set [2] stood at 500. Moreover, in the data set with Human alphaherpesvirus 1, the EC50 is 50 nM.

For the compound `COc1ccc2sc3c(c2c1)NC[C@H](C(C)C)NC3=O`, the CC50 in data set [1] was 4000 nM. Also, in data set [2], the selectivity ratio came out at 67. The compound also gave an EC50 in the data set on Human alphaherpesvirus 1 of 60 nM.

As for `COc1cccc(CN2CCNC(=O)c3sc4ccc(OC)cc4c32)c1`, in data set [1], the CC50 came to 10000 nM. In addition, the selectivity ratio in data set [2] was 25000. In the data set with Human alphaherpesvirus 1, the EC50 was 0.4 nM.

For the compound `COc1ccc2sc3c(c2c1)N[C@H](C)CNC3=O`, the CC50 in data set [1] was 7000 nM. Also, in data set [2], the selectivity ratio is 54. The compound also came in with an EC50 in the data set on Human alphaherpesvirus 1 of 130 nM.

Regarding `COc1cccc(CN2C[C@@H](Cc3ccccc3)NC(=O)c3sc4ccc(OC)cc4c32)c1`, the CC50 in data set [1] came out at 4000 nM. For the same compound, the selectivity ratio in data set [2] was determined as 9. The compound also showed an EC50 with Human alphaherpesvirus 1 of 450 nM.

Consider `COc1ccc2sc3c(c2c1)N(Cc1cccc(Cl)c1)CCNC3=O`, for which, in data set [1], the CC50 worked out at 20000 nM. Further, in data set [2], the selectivity ratio is 4000. Further, in the data set with Human alphaherpesvirus 1, the EC50 turned out to be 5 nM.

For `COc1ccc2sc3c(c2c1)N[C@@H](Cc1ccccc1)CNC3=O`, in data set [1], the CC50 stood at 1100 nM. In data set [2], the selectivity ratio turned out to be 110. Further, the response in the data set with Human alphaherpesvirus 1 was half-maximal at 10 nM (EC50).

Regarding `COc1ccc2sc3c(c2c1)N(Cc1ccc(C)cc1)CCNC3=O`, the CC50 in data set [1] was 11000 nM. The selectivity ratio in data set [2] came out at 360. The compound also gave an EC50 with Human alphaherpesvirus 1 of 30 nM.

With `COc1cccc(CN2C[C@H](Cc3ccccc3)NC(=O)c3sc4ccc(OC)cc4c32)c1`, the CC50 in data set [1] was 6000 nM. The selectivity ratio in data set [2] is 67. Further, the EC50 with Human alphaherpesvirus 1 was 90 nM.

As for `COc1ccc2sc3c(c2c1)SCCNC3=O`, the CC50 in data set [1] was found to be 7600 nM. In data set [2], the selectivity ratio was found to be 60. The same compound had an EC50 in the data set on Human alphaherpesvirus 1 of 125 nM.

Take `COc1ccc2sc3c(c2c1)NCCNC3=O`: in data set [1], the CC50 amounted to 4500 nM. In addition, in data set [2], the selectivity ratio came out at 35. In the data set with Human alphaherpesvirus 1, this compound had an EC50 of 130 nM.

As to `COc1ccc2sc3c(c2c1)[S+]([O-])CCNC3=O` (centres undefined), the CC50 in data set [1] was found to be 25800 nM. The selectivity ratio in data set [2] came to 10. For the same compound, in the data set on Human alphaherpesvirus 1, the EC50 turned out to be 2550 nM.

Regarding `COc1ccc2sc3c(c2c1)NC[C@H](CC(C)C)NC3=O`, the CC50 in data set [1] came out at 2000 nM. Further, in data set [2], the selectivity ratio was 100. Moreover, the EC50 in the data set on Human alphaherpesvirus 1 was found to be 20 nM.

For the compound `COc1ccc2sc3c(c2c1)N(C)CCNC3=O`, in data set [1], the CC50 came out at 12500 nM. Also, in data set [2], the selectivity ratio was found to be 28. Moreover, the midpoint of the response in the data set on Human alphaherpesvirus 1, the EC50, lay at 440 nM.

Regarding `C=CCN1CCNC(=O)c2sc3ccc(OC)cc3c21`, in data set [1], the CC50 was 1750 nM. Further, the selectivity ratio in data set [2] was 1750. In addition, the EC50 with Human alphaherpesvirus 1 amounted to 1 nM.

On to `COc1ccc2sc3c(c2c1)N(Cc1ccccc1)CCNC3=O`, for which the CC50 in data set [1] is 8000 nM. The selectivity ratio in data set [2] came to 1600. In addition, the EC50 with Human alphaherpesvirus 1 came out at 5 nM.

With `COc1ccc2sc3c(c2c1)NC[C@@H](C(C)C)NC3=O`, the CC50 in data set [1] came to 3300 nM. Also, the selectivity ratio in data set [2] turned out to be 37. The compound also gave a concentration for a half-maximal effect (EC50) in the data set on Human alphaherpesvirus 1 of 90 nM.

With `COc1ccc2sc3c(c2c1)OCCNC3=O`, in data set [1], the CC50 was 13100 nM. Further, the selectivity ratio in data set [2] amounted to 60. This compound registered an EC50 in the data set on Human alphaherpesvirus 1 of 210 nM.

`COc1ccc2sc3c(c2c1)N(Cc1ccccc1Cl)CCNC3=O`: in data set [1], the CC50 amounted to 12000 nM. Moreover, the selectivity ratio in data set [2] stood at 1500. For the same compound, the EC50 in the data set with Human alphaherpesvirus 1 is 8 nM.

Consider `COc1ccc2sc3c(c2c1)N(Cc1ccc(Cl)cc1)CCNC3=O`, for which the CC50 in data set [1] was 12000 nM. In addition, in data set [2], the selectivity ratio came to 300. In the data set with Human alphaherpesvirus 1, the EC50 is 40 nM.

For `COc1ccc2sc3c(c2c1)NC[C@H](Cc1ccccc1)NC3=O`, the CC50 in data set [1] is 1900 nM. Also, in data set [2], the selectivity ratio stood at 7. This compound registered a half-maximal effective concentration (EC50) in the data set on Human alphaherpesvirus 1 of 280 nM.

On to `COc1ccc2sc3c(c2c1)NC[C@@H](C)NC3=O`, for which the CC50 in data set [1] was found to be 1000 nM. In addition, the selectivity ratio in data set [2] is 50. Moreover, a half-maximal effect in the data set with Human alphaherpesvirus 1 (EC50) was put at 20 nM.

The values are drawn from ChEMBL document CHEMBL1136037, “Novel benzthiodiazepinones as antiherpetic agents: SAR improvement of therapeutic index by alterations of the seven-membered ring” (Bioorg Med Chem Lett, 2002).
